Literature values as cited in patent publication US20070167517A1, “Stabilized derivatives of ascorbic aicd” (Tagra Biotechnologies Ltd., priority 2003, published 2007).

Assays:
[1] = in the human
[2] = standard solutions and topical formulations, RP-HPLC

O=C1O[C@H]([C@@H](O)CO)C(O)=C1O [ascorbic acid]
half-life [1]: about 20 days

CCCCCCCCCCCCCCCC(=O)OC[C@H](O)[C@H]1OC(=O)C(O)=C1O [ascorbyl palmitate, 6-ascorbyl palmitate]
stability [2]: did not prevent hydrolysis of the molecule

O=C1O[C@H]([C@@H](O)CO)C(O)=C1OP(=O)([O-])[O-].[Mg+2] [magnesium ascorbyl phosphate, magnesium L-ascorbic acid-2-phosphate]
stability [2]: very stable
